{
  "source": "ChEMBL document CHEMBL1201862",
  "about": "“PubChem BioAssay data set” (2004)",
  "key": {"Nonstructural protein 1": {"biological_target": "Nonstructural protein 1 (Influenza A virus, UniProt Q194T2)", "sequence (Q194T2 whole entry)": "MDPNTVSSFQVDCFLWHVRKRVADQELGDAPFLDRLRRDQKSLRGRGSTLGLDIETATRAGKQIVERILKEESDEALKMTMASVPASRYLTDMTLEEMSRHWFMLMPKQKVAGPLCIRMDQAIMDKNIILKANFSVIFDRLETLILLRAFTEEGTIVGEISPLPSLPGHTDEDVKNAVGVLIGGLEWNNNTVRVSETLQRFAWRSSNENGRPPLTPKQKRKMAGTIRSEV", "assay_type": "functional, Influenza A virus (A/California/07/2009(H1N1))"}, "H9c2": {"tested_on": "H9c2", "experiment": "cells", "assay_type": "functional, cell-based", "conditions": "Rattus norvegicus, H9c2, Myocardium"}, "[1]": {"experiment": "inhibitors of Bluetongue virus cytopathic effect, confirmation, arbovirus, BSR cells (AID 1250);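 also: protection from viral cytopathic effect measured as cell viability by ATP luminescence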", "assay_type": "functional"}, "[2]": {"experiment": "HEp-2 cell cytotoxicity, dose response, cytotoxicity control for RSV inhibitor project, HTS (AID 2410)", "assay_type": "functional", "conditions": "human respiratory syncytial virus"}, "[3]": {"biological_target": "5-hydroxytryptamine receptor 1E (Homo sapiens, UniProt P28566)", "sequence (P28566 whole entry)": "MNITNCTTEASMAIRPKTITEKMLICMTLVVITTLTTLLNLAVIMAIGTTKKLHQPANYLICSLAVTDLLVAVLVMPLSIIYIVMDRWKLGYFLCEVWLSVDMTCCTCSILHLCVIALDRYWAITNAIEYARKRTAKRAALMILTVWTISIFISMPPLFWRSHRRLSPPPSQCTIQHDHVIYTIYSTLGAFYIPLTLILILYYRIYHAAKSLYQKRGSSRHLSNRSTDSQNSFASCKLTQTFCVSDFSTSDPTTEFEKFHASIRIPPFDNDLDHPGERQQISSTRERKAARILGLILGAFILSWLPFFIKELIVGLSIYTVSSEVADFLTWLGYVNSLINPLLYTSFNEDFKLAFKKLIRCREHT", "experiment": "Counterscreen assay for S1P3 antagonists: Dose response cell-based high throughput screening assay to identify antagonists of the 5-Hydroxytryptamine Receptor Subtype 1E (5HT1E). [Related pubchem assays: 1429, 485 ]", "assay_type": "functional"}, "[4]": {"biological_target": "Sphingosine 1-phosphate receptor 3 (Homo sapiens, UniProt Q99500)", "sequence (Q99500 whole entry)": "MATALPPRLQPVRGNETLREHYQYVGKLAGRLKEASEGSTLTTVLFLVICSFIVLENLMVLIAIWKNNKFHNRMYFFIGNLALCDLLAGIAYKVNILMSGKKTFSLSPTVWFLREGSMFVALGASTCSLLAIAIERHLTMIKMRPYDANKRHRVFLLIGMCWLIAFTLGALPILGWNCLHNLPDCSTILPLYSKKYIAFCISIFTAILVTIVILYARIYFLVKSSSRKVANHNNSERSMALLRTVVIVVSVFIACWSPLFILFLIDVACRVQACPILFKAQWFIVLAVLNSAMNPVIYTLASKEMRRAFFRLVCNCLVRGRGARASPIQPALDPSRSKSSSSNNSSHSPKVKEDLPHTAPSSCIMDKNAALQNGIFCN", "experiment": "Dose response cell-based high throughput screening assay for antagonists of the Sphingosine 1-Phosphate Receptor 3 (S1P3). [Related pubchem assays: 1429, 485 ]", "assay_type": "functional"}, "[5]": {"biological_target": "Eukaryotic translation initiation factor 4H (Homo sapiens, UniProt Q15056)", "experiment": "human eIF4H binding inhibitors, primary screen, translation initiation inhibitor project, biochemical, uHTS, fluorescence polarization (AID 2012)"}, "[6]": {"biological_target": "Polyadenylate-binding protein 1 (Homo sapiens, UniProt P11940)", "sequence (P11940 whole entry)": "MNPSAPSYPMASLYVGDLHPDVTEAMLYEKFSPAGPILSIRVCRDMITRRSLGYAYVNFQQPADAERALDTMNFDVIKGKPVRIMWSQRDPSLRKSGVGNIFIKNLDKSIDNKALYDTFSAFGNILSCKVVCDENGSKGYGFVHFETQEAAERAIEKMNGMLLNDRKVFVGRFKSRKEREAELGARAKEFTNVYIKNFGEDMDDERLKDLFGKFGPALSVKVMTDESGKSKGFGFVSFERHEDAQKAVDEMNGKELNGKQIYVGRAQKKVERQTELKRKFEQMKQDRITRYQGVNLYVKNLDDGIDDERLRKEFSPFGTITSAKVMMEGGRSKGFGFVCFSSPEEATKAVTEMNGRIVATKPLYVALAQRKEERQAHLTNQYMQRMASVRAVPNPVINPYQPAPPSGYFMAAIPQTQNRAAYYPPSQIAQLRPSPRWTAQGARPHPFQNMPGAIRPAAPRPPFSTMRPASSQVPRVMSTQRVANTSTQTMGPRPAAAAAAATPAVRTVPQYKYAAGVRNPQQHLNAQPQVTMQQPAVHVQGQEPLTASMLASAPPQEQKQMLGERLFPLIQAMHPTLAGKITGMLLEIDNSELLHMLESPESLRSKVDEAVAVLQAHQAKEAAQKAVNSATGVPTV", "experiment": "PABP poly(A) RNA binding inhibitors, primary screen, biochemical, fluorescence polarization, uHTS (AID 2014)"}, "[7]": {"biological_target": "T1, Heat shock factor protein 1 (Mus musculus, UniProt P38532)", "T1 sequence (P38532 whole entry)": "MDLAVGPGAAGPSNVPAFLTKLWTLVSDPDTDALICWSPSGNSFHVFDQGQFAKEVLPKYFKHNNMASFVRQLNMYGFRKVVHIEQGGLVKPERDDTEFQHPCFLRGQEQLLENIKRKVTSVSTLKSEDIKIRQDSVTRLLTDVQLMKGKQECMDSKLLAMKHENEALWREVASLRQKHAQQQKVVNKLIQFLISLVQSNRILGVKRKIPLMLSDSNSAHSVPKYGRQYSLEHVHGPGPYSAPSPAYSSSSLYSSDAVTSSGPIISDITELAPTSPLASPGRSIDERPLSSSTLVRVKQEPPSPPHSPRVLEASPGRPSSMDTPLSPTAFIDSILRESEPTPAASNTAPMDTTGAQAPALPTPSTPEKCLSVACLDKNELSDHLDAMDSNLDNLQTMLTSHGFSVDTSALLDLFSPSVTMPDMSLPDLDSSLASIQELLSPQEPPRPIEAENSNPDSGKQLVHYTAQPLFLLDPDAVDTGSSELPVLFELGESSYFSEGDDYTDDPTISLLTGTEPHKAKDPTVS", "experiment": "inhibition of MG132-induced HSE-luciferase signal, confirmation, cell-based, NIH3T3, luminescence, dose retest (AID 2382);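 also: NIH3T3 fibroblasts with HSF1-driven luciferase reporter stressed by proteasome inhibitor MG132; luminescence from HSF1-driven luciferase expression after 8 hours of MG132 stress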", "assay_type": "functional"}, "[8]": {"biological_target": "Lysosomal acid glucosylceramidase (Homo sapiens, UniProt P04062)", "sequence (P04062 whole entry)": "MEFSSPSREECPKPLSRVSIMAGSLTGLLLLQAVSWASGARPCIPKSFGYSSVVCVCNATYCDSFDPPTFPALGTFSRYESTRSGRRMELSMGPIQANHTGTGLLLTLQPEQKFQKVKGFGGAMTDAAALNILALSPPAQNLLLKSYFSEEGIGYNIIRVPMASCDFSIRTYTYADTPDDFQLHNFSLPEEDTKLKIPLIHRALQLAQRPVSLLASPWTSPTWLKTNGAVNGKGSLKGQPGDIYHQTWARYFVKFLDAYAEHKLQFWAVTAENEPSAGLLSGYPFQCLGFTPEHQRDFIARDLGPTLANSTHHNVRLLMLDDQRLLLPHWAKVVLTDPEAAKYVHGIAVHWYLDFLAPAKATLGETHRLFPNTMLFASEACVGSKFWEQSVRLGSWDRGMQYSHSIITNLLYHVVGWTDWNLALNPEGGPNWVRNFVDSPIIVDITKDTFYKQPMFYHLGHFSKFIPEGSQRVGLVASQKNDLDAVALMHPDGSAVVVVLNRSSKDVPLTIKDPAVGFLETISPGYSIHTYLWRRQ", "experiment": "Dose response cell-based high throughput screening assay to identify enhancers of beta-glucosidase activity. [Related pubchem assays: 784 ]", "assay_type": "functional"}, "Cytochrome P450 3A4": {"biological_target": "Cytochrome P450 3A4 (Homo sapiens, UniProt P08684)", "sequence (P08684 whole entry)": "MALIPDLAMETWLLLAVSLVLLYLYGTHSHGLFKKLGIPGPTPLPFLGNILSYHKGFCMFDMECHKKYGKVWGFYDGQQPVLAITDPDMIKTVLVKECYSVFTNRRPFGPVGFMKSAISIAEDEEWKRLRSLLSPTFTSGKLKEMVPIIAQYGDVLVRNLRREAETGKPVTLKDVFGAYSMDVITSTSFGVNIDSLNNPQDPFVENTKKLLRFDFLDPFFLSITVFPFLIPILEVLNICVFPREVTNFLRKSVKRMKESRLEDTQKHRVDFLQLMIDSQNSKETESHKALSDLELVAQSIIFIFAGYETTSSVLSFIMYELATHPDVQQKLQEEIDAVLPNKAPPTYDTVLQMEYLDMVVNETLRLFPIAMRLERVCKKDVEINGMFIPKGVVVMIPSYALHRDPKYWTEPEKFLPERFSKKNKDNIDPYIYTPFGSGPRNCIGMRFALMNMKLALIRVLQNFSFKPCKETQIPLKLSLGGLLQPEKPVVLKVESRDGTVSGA", "conditions": "Potency"}, "HEK293": {"tested_on": "HEK293", "experiment": "Fluorescence-based counterscreen for potentiators or agonists of NPY-Y2: cell-based high-throughput dose response assay to identify inhibitors of cyclic nucleotide gated ion channel (CNGC) activity. In this assay, the parental HEK293 cell line transfected with a cyclic-nucleotide gated ion channel (CNGC)-based cAMP sensor is used to measure inhibition of isoproterenol-induced CNGC activity by test compound.", "assay_type": "functional", "conditions": "Homo sapiens"}, "[9]": {"biological_target": "Neuropeptide Y receptor type 1 (Homo sapiens, UniProt P25929)", "sequence (P25929 whole entry)": "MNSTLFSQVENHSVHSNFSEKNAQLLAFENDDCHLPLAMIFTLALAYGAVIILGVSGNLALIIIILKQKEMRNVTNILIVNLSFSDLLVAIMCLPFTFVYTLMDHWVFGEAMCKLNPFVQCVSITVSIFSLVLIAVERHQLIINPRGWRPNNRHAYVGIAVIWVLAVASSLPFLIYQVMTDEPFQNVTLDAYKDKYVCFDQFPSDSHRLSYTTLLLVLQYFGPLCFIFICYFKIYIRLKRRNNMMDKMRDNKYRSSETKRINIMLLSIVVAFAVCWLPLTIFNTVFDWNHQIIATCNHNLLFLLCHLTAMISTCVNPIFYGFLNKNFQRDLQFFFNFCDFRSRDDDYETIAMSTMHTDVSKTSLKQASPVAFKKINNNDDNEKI", "experiment": "Fluorescence-based counterscreen for agonists of NPY-Y2: cell-based high-throughput dose response assay for agonists of NPY-Y1.", "assay_type": "functional"}, "[10]": {"biological_target": "Neuropeptide Y receptor type 2 (Homo sapiens, UniProt P49146)", "sequence (P49146 whole entry)": "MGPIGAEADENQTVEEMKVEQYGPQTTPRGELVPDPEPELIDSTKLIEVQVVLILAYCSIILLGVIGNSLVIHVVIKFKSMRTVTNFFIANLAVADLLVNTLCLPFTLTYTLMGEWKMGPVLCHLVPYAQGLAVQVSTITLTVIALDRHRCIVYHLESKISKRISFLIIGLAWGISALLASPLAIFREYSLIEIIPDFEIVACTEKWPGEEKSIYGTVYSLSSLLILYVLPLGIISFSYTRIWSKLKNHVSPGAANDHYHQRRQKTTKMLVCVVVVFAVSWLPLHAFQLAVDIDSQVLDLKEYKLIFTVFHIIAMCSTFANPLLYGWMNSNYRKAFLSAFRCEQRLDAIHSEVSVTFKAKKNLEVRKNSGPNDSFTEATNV", "experiment": "Fluorescence-based cell-based high-throughput dose response assay for agonists of NPY-Y2. [Related pubchem assays: 1703 (Screening assay (CNGC inhibitors).), 1359 (Screening assay (NPY-Y2 potentiators or agonists).), 1304 (Screening assay (NPY-Y1 potentiators or agonists).), 1710 (Screening assay (NPY-Y2 agonists).), 1791 (Summary AID.)]", "assay_type": "functional"}},
  "note": "Calls of active or inactive are those of the source.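 For AC50 in this document: confirmatory qHTS run detecting inhibitors and substrates of CYP3A4.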",
  "data": [
    {"smiles": "CC(=O)Nc1ccc(C(=O)Nc2nc(-c3ccccn3)cs2)cc1", "values": [
      {"measurement": "IC50", "setting": "Nonstructural protein 1", "result": "7.8 µM (active)"},
      {"measurement": "IC50", "setting": "H9c2", "result": "> 79 µM (inactive)"},
      {"measurement": "IC50", "setting": "[1]", "result": "38 µM (active)"}
    ]},
    {"smiles": "CCCC[C@@H]1C[C@H]1[C@@H](NC(=O)c1cccs1)c1ccc(Cl)cc1", "values": [
      {"measurement": "CC50", "setting": "[2]", "result": "20.8 µM (active)"},
      {"measurement": "IC50", "setting": "[3]", "result": "2.47 µM (active)"},
      {"measurement": "IC50", "setting": "[4]", "result": "1.21 µM (active)"}
    ]},
    {"smiles": "COc1ccccc1/N=C1/SCCCN1C", "values": [
      {"measurement": "IC50", "setting": "[5]", "result": "> 100 µM (inactive)"},
      {"measurement": "IC50", "setting": "[6]", "result": "3.57 µM (active)"},
      {"measurement": "EC50", "setting": "[7]", "result": "> 195 µM (not active)"}
    ]},
    {"smiles": "CCOC(=O)COc1ccc(-c2nnc(-c3ccccc3)o2)cc1", "values": [
      {"measurement": "EC50", "setting": "[8]", "result": "> 10 µM (not active)"}
    ]},
    {"smiles": "CN1C[C@@H]2C(c3ccccc3)C3(c4ccccc4)CC2(C3)[C@H]1c1ccccc1", "note": "(some centres undefined)", "values": [
      {"measurement": "AC50", "setting": "Cytochrome P450 3A4", "result": "5.01 µM (inconclusive)"}
    ]},
    {"smiles": "Fc1ccc(Nc2c(-c3ccco3)nc3ccccn23)cc1", "values": [
      {"measurement": "EC50", "setting": "HEK293", "result": "17.9 µM (not active)"},
      {"measurement": "EC50", "setting": "[9]", "result": "6.46 µM (active)"},
      {"measurement": "EC50", "setting": "[10]", "result": "10.6 µM (not active)"}
    ]}
  ]
}
